Several values for one entry are separate records, joined by “and”; a condition that tells them apart may be missing. Equal entries are not always repeated. Entries after “also recorded” stand apart in the source; their conditions may differ. Where two headings read alike, the source gives them in different places. Non-standard residues stand in square brackets, D forms with d. Residues, ends and D or L forms follow the SMILES beside them. *: point of attachment. Propanoyl(3-SS-DM1) = COc1cc2cc(c1Cl)N(C)C(=O)C[C@H](OC(=O)[C@H](C)N(C)C(=O)CCSSCCC(=O)*)[C@]1(C)O[C@H]1[C@H](C)[C@@H]1C[C@@](O)(NC(=O)O1)[C@H](OC)/C=C/C=C(\C)C2; DOTA = O=C(O)CN1CCN(CC(=O)O)CCN(CC(=O)*)CCN(CC(=O)O)CC1; EuK = O=C(O)CC[C@H](NC(=O)N[C@@H](CCCCN*)C(=O)O)C(=O)O; Sta = CC(C)C[C@H](N)[C@@H](O)CC(=O)O; Ahx = NCCCCCC(=O)O
Experiments:
[1] = tested on: PSMA-positive LS174T cells; assay: Resazurin-based cytotoxicity assay; type: cell-based, human; conditions: for cell viability: 48 h post treatment
Protocol: LS174T human colon carcinoma cells transfected with human PSMA were cultured in RPMI-1640 media supplemented with 2 mM glutamine, 10% fetal bovine serum (FBS) and 0.3 mg/mL G418 (Geneticin, Sigma Aldrich, Burlington, MA, USA). The cells were provided by Dr. Sandra Heskamp (Radboud UMC, Nijmegen, The Netherlands).
A resazurin in vitro toxicology assay kit was used to determine cytotoxicity. Briefly, 5 × 10^3 LS174T cells were seeded in a volume of 100 µL per well in 96-well plates and incubated at 37 °C with 5% CO2 for 24 h before the experiment. After incubation, the media were removed, and the wells were washed once with PBS. Then, ePSMA-DM1 at the concentrations of 1, 10, 100 and 1000 nM and the positive control DM1 (1000 nM) were prepared in culture media (RPMI-1640 media supplemented with 2 mM glutamine, 10% fetal bovine serum (FBS) and 0.3 mg/mL G418). Media and PSMA-617 (100 nM) were used as negative controls. Cells were incubated with 100 µL of the tested compounds for 48 and 72 h at 37 °C with 5% CO2. After incubation, media were removed, and each well was washed once with PBS. Next, 100 µL of 10% resazurin solution (TOX8, Sigma-Aldrich) in culture media was added to each well and incubated for 2.5 h. Fluorescence was measured using the HIDEX Sense Optical System with excitation at 544 nm and emission at 590 nm. Data were analyzed using GraphPad Prism 9.0 and expressed as cell viability (%). The experiments were performed in triplicate.

Recombinant human PSMA = molecular target: T1, Recombinant human PSMA (Homo sapiens, UniProt Q04609); assay: NAALADase enzymatic assay (binding to PSMA); type: biochemical
T1 construct: purchased R & D systems, Abingdon, UK
T1 sequence (Q04609 whole entry): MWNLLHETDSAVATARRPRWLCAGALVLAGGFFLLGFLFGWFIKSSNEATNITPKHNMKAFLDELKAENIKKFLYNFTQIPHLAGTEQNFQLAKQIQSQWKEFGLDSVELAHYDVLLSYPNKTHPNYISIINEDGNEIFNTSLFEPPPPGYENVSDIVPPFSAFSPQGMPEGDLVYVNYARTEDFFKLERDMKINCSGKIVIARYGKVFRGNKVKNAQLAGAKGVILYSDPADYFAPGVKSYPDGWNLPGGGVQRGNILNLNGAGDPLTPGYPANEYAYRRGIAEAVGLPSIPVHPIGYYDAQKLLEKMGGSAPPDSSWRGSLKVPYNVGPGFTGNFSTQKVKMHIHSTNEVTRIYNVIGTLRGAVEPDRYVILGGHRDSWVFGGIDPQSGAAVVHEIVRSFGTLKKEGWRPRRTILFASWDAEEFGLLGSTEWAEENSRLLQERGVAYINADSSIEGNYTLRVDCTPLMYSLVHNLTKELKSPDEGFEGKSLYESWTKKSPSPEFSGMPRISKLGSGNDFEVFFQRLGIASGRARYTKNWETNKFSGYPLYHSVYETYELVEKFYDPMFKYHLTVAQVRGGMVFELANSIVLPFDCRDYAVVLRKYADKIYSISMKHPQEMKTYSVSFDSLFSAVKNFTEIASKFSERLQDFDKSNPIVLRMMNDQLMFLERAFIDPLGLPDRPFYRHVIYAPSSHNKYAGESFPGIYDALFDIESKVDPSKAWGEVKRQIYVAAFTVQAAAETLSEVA
Protocol: Recombinant human PSMA (rhPSMA; R & D systems, Abingdon, UK) was diluted in assay buffer (50 mM HEPES, 0.1 M NaCl, pH 7.5) to 0.4 μg/mL. The substrate Ac-Asp-Glu (40 μM) was mixed with ePSMA-DM1 or with a reference (PSMA-617) at concentrations ranging from 10^−6 to 10^−13 M in a final volume of 12.5 μL assay buffer. The mixtures were combined with 12.5 μL of the rhPSMA solution and incubated for 1 h at 37 °C in 384-well black polystyrene microplates (ThermoFisher, Bleiswijk, The Netherlands). A volume of 25 μL of a working solution of the Amplex Red glutamic acid kit (ThermoFisher, Bleiswijk, The Netherlands) was added and incubated at 37 °C for 30 min. Release of glutamate was measured by fluorescence with a HIDEX Sense Optical System (Goedereede, The Netherlands) set at 535 nm (excitation) and 590 nm (emission). Data were normalized, and one-site total binding regression was applied for analysis with GraphPad Prism v9.0 (GraphPad Software, San Diego, CA, USA).

Stability in mouse serum = type: in vitro ADME; conditions: 24 h post incubation, 37 °C
Protocol: [^111In]In-ePSMA-DM1 (~30 MBq, 70 µL) was mixed with 330 μL of mouse serum and incubated at 37 °C for up to 24 h. To a separate vial containing 50 µL of acetonitrile, 50 μL of the mouse serum solution was added after 1, 4 and 24 h of incubation. The sample was centrifuged at 5000× g for 20 min. The supernatant was analyzed by radio-HPLC.

Stability in PBS = type: physicochemical; conditions: 24 h post incubation, 37 °C
Protocol: [^111In]In-ePSMA-DM1 (~10 MBq, 20 µL) was mixed with 80 μL of PBS (0.01 M, pH 7.4) and incubated at 37 °C for up to 24 h. A sample of the PBS solution was loaded directly onto the radio-HPLC at 1, 4 and 24 h post incubation.

[2] = tested on: BALB/c nu/nu LS174T xenografted mice; assay: Ex vivo biodistribution; type: in vivo, mouse; conditions: estimated, one-phase decay
Protocol: Animal experiments were performed using male BALB/c nude mice (8–10 weeks old; Janvier Labs, Le Genest-Saint-Isle, France). Animals were housed in individually ventilated cages (Blue line IVC, 2 mice per cage) under sterile standard conditions with cage enrichments present and free access to animal chow (Sniff GmbH, Soest, Germany) and water. They were acclimated for 1 week prior to experiments. Mice were subcutaneously inoculated with 4.0 × 10^6 LS174T cells in the right flank diluted in 100 μL of cell suspension […]. The average tumor volume size per group (n = 4) was of 206.2 ± 7.9 mm^3 (average weight of 105.8 ± 7.3 mg) after non-blinded grouping to enable homogenous tumor size distribution. [^111In]In-ePSMA-DM1 was injected intravenously via the tail vein. All experiments were approved by the institutional Animal Welfare Committee and were conducted in accordance to the guidelines of the Revised Dutch Act on Animal Experimentation (WOD).
Mice were intravenously injected with ~1 nmol of [^111In]In-ePSMA-DM1 (5 MBq). Mice (n = 4/timepoint) were euthanized by cervical dislocation at 1, 4 and 24 h p.i. A block group (co-injection of 50 nmol of PSMA-617) was included, and mice were euthanized at 4 h p.i. Organs (blood, heart, lungs, liver, spleen, stomach, intestines, pancreas, kidneys, muscle, skin, bone and prostate) and the tumors were collected in pre-weighed tubes, weighed after organ collection, and measured in the γ-counter, for which the calibration factor was determined by measuring different known activities of In-111. Activity was corrected for decay, and uptake was expressed as percentage of the injected dose per gram of the tissue (% ID/g). The biological half-lives in tissues of [^111In]In-ePSMA-DM1 were determined using a one-phase decay algorithm in GraphPad Prism 9.0 (GraphPad Software, Boston, MA, USA).

[3] = Glutathione (GSH) stability / drug release assay; type: in vitro ADME
Protocol: The protocol was adapted from the literature. A 5 mM solution of L-glutathione was prepared in PBS, and 990 μL aliquots were dispensed into Eppendorf tubes. To each tube, 10 μL of a solution of ePSMA-DM1 (1 mM) in MeOH was added, and the mixtures were incubated at 37 °C. Then 50 μL aliquots of the solution were taken at 10 min, 30 min, 1, 2, 4 and 6 h and analyzed by LC-MS. The experiments were performed in triplicate.

## COc1cc2cc(c1Cl)N(C)C(=O)C[C@H](OC(=O)[C@H](C)N(C)C(=O)CCS)[C@]1(C)O[C@H]1[C@H](C)[C@@H]1C[C@@](O)(NC(=O)O1)[C@H](OC)/C=C/C=C(\C)C2 [DM1, Mertansine, reference compound]
[1]; 1000 nM
  cell viability: ~ 50%
[1]; 1000 nM, 72 h
  decrease in cell viability: more than 85%

## O=C(O)CC[C@H](NC(=O)N[C@@H](CCCCNC(=O)[C@H](Cc1ccc2ccccc2c1)NC(=O)[C@H]1CC[C@H](CNC(=O)CN2CCN(CC(=O)O)CCN(CC(=O)O)CCN(CC(=O)O)CC2)CC1)C(=O)O)C(=O)O [PSMA-617, reference compound]
Recombinant human PSMA; NAALADase assay, rhPSMA, substrate Ac-Asp-Glu, read-out: IC50 (binding affinity to PSMA)
  IC50: 2.19 ± 0.78 nM
[1]; 100 nM, negative control
  decrease in viability: not observed

## COc1cc2cc(c1Cl)N(C)C(=O)C[C@H](OC(=O)[C@H](C)N(C)C(=O)CCSSCCC(=O)NCCCC[C@H](NC(=O)CN1CCN(CC(=O)O)CCN(CC(=O)O)CCN(CC(=O)O)CC1)C(=O)N[C@@H](CC(=O)O)C(=O)N[C@@H](Cc1ccccc1)C(=O)N[C@@H](CC(C)C)[C@@H](O)CC(=O)NCCCCCC(=O)NCCCC[C@H](NC(=O)N[C@@H](CCC(=O)O)C(=O)O)C(=O)O)[C@]1(C)O[C@H]1[C@H](C)[C@@H]1C[C@@](O)(NC(=O)O1)[C@H](OC)/C=C/C=C(\C)C2 [[^111In]In-ePSMA-DM1] [metal not drawn] ({DOTA}-K(Propanoyl(3-SS-DM1))DF[Sta][Ahx]-EuK)
Stability in mouse serum
  Stability in Mouse Serum (%): 82.9%
Stability in PBS
  Stability in PBS (%): 90.9%
[2]
  half-life in the blood: 1.5 h
  half-life in the tumor: 2.1 h

## COc1cc2cc(c1Cl)N(C)C(=O)C[C@H](OC(=O)[C@H](C)N(C)C(=O)CCSSCCC(=O)NCCCC[C@H](NC(=O)CN1CCN(CC(=O)O)CCN(CC(=O)O)CCN(CC(=O)O)CC1)C(=O)N[C@@H](CC(=O)O)C(=O)N[C@@H](Cc1ccccc1)C(=O)N[C@@H](CC(C)C)[C@@H](O)CC(=O)NCCCCCC(=O)NCCCC[C@H](NC(=O)N[C@@H](CCC(=O)O)C(=O)O)C(=O)O)[C@]1(C)O[C@H]1[C@H](C)[C@@H]1C[C@@](O)(NC(=O)O1)[C@H](OC)/C=C/C=C(\C)C2 [[^177Lu]Lu-ePSMA-DM1] [metal not drawn] ({DOTA}-K(Propanoyl(3-SS-DM1))DF[Sta][Ahx]-EuK)
Stability in mouse serum
  Stability in Mouse Serum (%): 91.2%
Stability in PBS
  Stability in PBS (%): 81.4%

## COc1cc2cc(c1Cl)N(C)C(=O)C[C@H](OC(=O)[C@H](C)N(C)C(=O)CCSSCCC(=O)NCCCC[C@H](NC(=O)CN1CCN(CC(=O)O)CCN(CC(=O)O)CCN(CC(=O)O)CC1)C(=O)N[C@@H](CC(=O)O)C(=O)N[C@@H](Cc1ccccc1)C(=O)N[C@@H](CC(C)C)[C@@H](O)CC(=O)NCCCCCC(=O)NCCCC[C@H](NC(=O)N[C@@H](CCC(=O)O)C(=O)O)C(=O)O)[C@]1(C)O[C@H]1[C@H](C)[C@@H]1C[C@@](O)(NC(=O)O1)[C@H](OC)/C=C/C=C(\C)C2 [ePSMA-DM1] ({DOTA}-K(Propanoyl(3-SS-DM1))DF[Sta][Ahx]-EuK)
[3]; after 2 h, 5 mM GSH
  drug released: ~ 50% and 50%
[3]; buffer, 5 mM GSH in PBS, 37 °C, read-out: half-life in a reducing environment (converted)
  half-life at 10 µM: 2 h
Recombinant human PSMA
  IC50: 45.3 ± 1.84 nM
[1]; 1 nM, 48 and 72 h
  cytotoxic effect: not sufficient to elicit cell death; also recorded: not observed
[1]; 100 nM
  cell viability: ~ 50%
[1]; 1000 nM
  cell viability: ~ 50%
